{"source": "patent US20100168049A1", "about": "“COMBINATION OF MONOSACCHARIDES AND ADENOSINE AND USE THEREOF” (L'OREAL, priority 2008, published 2010)", "key": {"[1]": {"test_system": "type I procollagen", "test": "Synthesis of procollagen 1 in reconstructed skin (indirect immunofluorescence)", "assay_type": "cell-based, human", "settings": "for procollagen 1 synthesis: reconstructed skin", "experimental": "Conventional detection via indirect immunofluorescence of type I procollagen in the dermis of the reconstructed skin was also performed on other series of frozen sections (anti-procoll 1 antibody (MAB 1912 Millipore)+FTIC-coupled conjugate (112-095-068 Jackson Immunoresearch)). In order to obtain bearings within the cutaneous architecture during the microscopic examination of the sections, the cell nuclei of the keratinocytes and fibroblasts are localized by staining them with propidium iodide, as described above. Three frozen sections are prepared at random on each reconstructed skin and on each section, and two microscopic fields (25× objective lens) are analysed by fluorescence microscopy and photographed. The levels of fluorescence proportional to the amount of type I procollagen are compared between the control skin and the skin treated with rhamnose."}, "[2]": {"test_system": "keratinocytes (HaCat line)", "test": "Proliferation of keratinocytes (Cyquant, Nile red, XTT markers)", "assay_type": "cell-based", "experimental": "The keratinocytes (HaCat line) are cultured under two conditions: whole defined culture medium (standard condition) and culture medium deficient in growth factors. This deficient medium gives rise to a controlled delay in cell proliferation. Under these conditions, it is then possible to measure the effects of compounds capable of compensating for the deficiency in growth factors of the culture medium and thus of relaunching the cell multiplication and/or of stimulating cell metabolism.\nThe keratinocyte proliferation is measured by means of three markers on the same cell population: the level of DNA, which is proportional to the number of cells (Cyquant probe), the level of constituent polar lipids of cell membranes (Nile red probe) and the mitochondrial respiration, which reflects the general cell metabolism (XTT probe)."}, "[3]": {"test_system": "dermal fibroblasts of the reconstructed skin", "test": "Proliferation of fibroblasts in whole reconstructed skin (propidium iodide nuclei count)", "assay_type": "cell-based, human", "settings": "5 mM; within 48 hours of treatment", "text": "Rhamnose was studied on a model of whole reconstructed skin in order to measure its anti-ageing efficacy on the dermal compartment.\nBriefly, the model of reconstructed skin used is that described by Bell et al. (Bell E. et al., The reconstitution of living skin, J. Invest. Dermatol., 1983, July; 81): it includes a dermal equivalent on which is reconstructed a multistratified epidermis; the dermal equivalent is manufactured from acid-soluble collagen, culture medium containing serum and normal adult human fibroblasts. After 5 days of shrinkage, this equivalent is inoculated with keratinocytes and then cultured for 6 days in immersion and for 7 days in emersion in order to obtain a multistratified and differentiated epidermis having a horny layer.\nThe reconstructed skin is treated with 5 mM rhamnose for 2 days and 5 days in the culture medium; after the treatment, the reconstructed skins are included in Tissue Tek in order to produce frozen sections 7 μm thick with a cryostat. […] Three frozen sections are prepared at random on each reconstructed skin; on each section, two microscopic fields (25× objective lens) are analysed by fluorescence microscopy and photographed. The dermal fibroblasts are thus counted for each reconstructed skin on six images in total representing the six microscopic fields considered. […]"}}}
{"smiles": "C[C@H](O)[C@H](O)[C@@H](O)[C@@H](O)C=O", "note": "[rhamnose, L-rhamnose]", "values": [{"measurement": "green fluorescence (proportional to the amount of type I procollagen) vs control skin", "setting": "[1]; 1 mM, 120 hours", "value": "marked increase"}, {"measurement": "synthesis of type I procollagen by the fibroblasts", "setting": "[1]; 1 mM, 120 hours", "value": "greatly stimulated"}, {"measurement": "procollagen 1 synthesis", "setting": "[1]; 1 mM", "value": "stimulation of procollagen 1 synthesis"}, {"measurement": "procollagen 1 synthesis", "setting": "[1]; 5 mM", "value": "stimulation of procollagen 1 synthesis"}, {"measurement": "keratinocyte proliferation", "setting": "[2]; keratinocytes cultured in medium depleted in growth factors", "value": "activate keratinocyte proliferation"}, {"measurement": "number of cells compared with an untreated control", "setting": "[2]; medium depleted in growth factor", "value": "higher number of cells"}, {"measurement": "growth of the dermal fibroblasts", "setting": "[3]", "value": "stimulation of growth"}]}
